In PubChem BioAssay (NCI) one finds TGI and GI50 data, which are given here for 13 molecules.

Among the test systems are COLO 205 colon; HCT-15 colon; HOP-92 NSCLC; KM12 colon; LOX IMVI melanoma; NCI-H522 lung; NCI/ADR-RES ovarian; OVCAR-3 ovarian; SK-MEL-5 melanoma; T-47D breast; HL-60(TB) leukemia.
Holding throughout (experiment): DTP human tumour cell line panel, 48 h

Values joined by “and” are separate entries in the source; they are usually repeats but may differ in a detail not shown here. Equal values may be shown once.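 Dose response: 5 concentrations. Exposure: 48 h. Format: 96-well plates. Endpoint: linear interpolation; highest concentration if not reached. Here, GI50 denotes the concentration required for 50% inhibition of growth. TGI marks complete inhibition of growth.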

For `ClC(Cl)(Cl)C1=N[C@H]2[C@H](Br)[C@@H]3O[C@@H](c4ccccc4)[C@H](c4ccccc4)O[C@@H]3[C@H]2O1`, the TGI in the test with COLO 205 colon is 30 µM; with HCT-15 colon, 67.3 µM; in the test with HOP-92 NSCLC, 31.5 µM; with KM12 colon, 45.6 µM; in the test with LOX IMVI melanoma, 33.3 µM; with NCI-H522 lung, 26.7 µM. In addition, the concentration for total growth inhibition (TGI) is 65.2 µM with NCI/ADR-RES ovarian, 31.9 µM with OVCAR-3 ovarian, 31.2 µM in the test with SK-MEL-5 melanoma and over 100 µM in the test on T-47D breast.

As for `Cc1ccnc2[nH]c(-c3cccc(Cl)c3)cc(=O)c12`, the total growth inhibition concentration (TGI) with HCT-15 colon was over 100 µM; with HL-60(TB) leukemia it was 0.0611 µM; with HOP-92 NSCLC it was over 100 µM; in the test with KM12 colon, over 47.8 µM; with LOX IMVI melanoma it was over 100 µM; in the test on NCI-H522 lung it was over 100 µM. Further, the TGI in the test with NCI/ADR-RES ovarian is over 100 µM; with OVCAR-3 ovarian, 0.162 µM; in the test with SK-MEL-5 melanoma, over 35.7 µM; in the test with T-47D breast, over 100 µM.

As for `CC(C(=O)ON1C(=O)CCC1=O)c1ccc(C(=O)c2ccccc2)s1` (centres undefined), the TGI in the test with COLO 205 colon, in the test with HCT-15 colon, in the test on HOP-92 NSCLC, with KM12 colon, with LOX IMVI melanoma and in the test on NCI-H522 lung was over 100 µM throughout. The TGI with NCI/ADR-RES ovarian, in the test with OVCAR-3 ovarian, in the test on SK-MEL-5 melanoma and in the test on T-47D breast was over 100 µM each time.

For the molecule `COC(=O)c1cc(NC(=O)c2cc(NC(=O)c3cc([N+](=O)[O-])cn3C)cn2C)cn1C`, the total growth inhibition concentration (TGI) in the test with COLO 205 colon was over 100 µM; in the test on HCT-15 colon it was over 100 µM; in the test with HL-60(TB) leukemia, over 100 µM; in the test on HOP-92 NSCLC, 95.7 µM; in the test on KM12 colon, over 100 µM; in the test with LOX IMVI melanoma, over 100 µM. Also, the TGI was over 100 µM in the test on NCI/ADR-RES ovarian, over 100 µM in the test on OVCAR-3 ovarian, 91.9 µM with SK-MEL-5 melanoma and over 100 µM with T-47D breast.

On to `CN(C)c1ccc(/C=C2\N=C(NN)NC2=O)cc1`, for which the TGI in the test on COLO 205 colon, in the test with HCT-15 colon, in the test with HL-60(TB) leukemia, with HOP-92 NSCLC, with KM12 colon and in the test on LOX IMVI melanoma was over 100 µM each time. For the same molecule, the TGI in the test on NCI-H522 lung, with NCI/ADR-RES ovarian, with OVCAR-3 ovarian and with T-47D breast was over 100 µM each time.

For `CN(C(=O)Cc1ccc(Cl)c(Cl)c1)[C@H]1CCCC[C@@H]1[N+]1(C)CCCC1`, the TGI with COLO 205 colon, with HCT-15 colon, in the test on KM12 colon, in the test with LOX IMVI melanoma, in the test with NCI-H522 lung and in the test with NCI/ADR-RES ovarian was over 100 µM in each case. Further, the total growth inhibition concentration (TGI) in the test with OVCAR-3 ovarian, in the test on SK-MEL-5 melanoma and in the test on T-47D breast was over 100 µM in each case.

With `CCOC(=O)Oc1cc2c(c(OC)c1OC)-c1ccc(SC)c(=O)cc1C(NC(=O)C(F)(F)F)CC2` (centres undefined), the GI50 in the test with COLO 205 colon is 0.0447 µM; in the test on NCI/ADR-RES ovarian, 0.023 µM; with T-47D breast, 21.4 µM. The concentration for total growth inhibition (TGI) with COLO 205 colon was 0.523 µM and 1.03 µM; in the test with HCT-15 colon, over 100 µM; in the test on HL-60(TB) leukemia, 0.0148 µM; in the test with HOP-92 NSCLC it was 0.306 µM; with NCI-H522 lung, 0.00253 µM; in the test with SK-MEL-5 melanoma, 0.00191 µM. In the test with T-47D breast, this molecule gave a concentration for total growth inhibition (TGI) of 81 µM.

Turning to `CCCCCC(=O)N[C@@H](c1ccccc1)C(O)C(=O)OC1C[C@@]2(O)C(OC(=O)c3ccccc3)C3[C@](C)(C(=O)[C@H](O)C(=C1C)C2(C)C)C(OC1OCC(O)C(O)C1O)C[C@H]1OC[C@@]31OC(C)=O` (some centres undefined), the TGI with COLO 205 colon is 8.15 µM; in the test on HCT-15 colon, over 100 µM; in the test with HL-60(TB) leukemia it was 7.79 µM; in the test with HOP-92 NSCLC, over 100 µM; in the test on KM12 colon, over 38.3 µM; in the test with NCI-H522 lung, 3.92 µM. Besides, the TGI with NCI/ADR-RES ovarian is over 100 µM; in the test on OVCAR-3 ovarian it was 5.2 µM; in the test on SK-MEL-5 melanoma, over 100 µM; in the test on T-47D breast, over 100 µM.

Consider `Cc1ccc(N=Nc2c(O)ccc3cc(S(=O)(=O)O)ccc23)c(C)c1`, for which the TGI with COLO 205 colon, in the test on HCT-15 colon, in the test on HL-60(TB) leukemia, in the test with HOP-92 NSCLC, with KM12 colon and in the test with NCI-H522 lung was over 100 µM throughout. For the same molecule, the TGI in the test with NCI/ADR-RES ovarian, with OVCAR-3 ovarian, in the test on SK-MEL-5 melanoma and in the test with T-47D breast was over 100 µM in each case.

On to `COC(=O)c1ccccc1C#CC#Cc1ccccc1C(=O)OC`, for which the TGI with COLO 205 colon is 3.28 µM; in the test with HCT-15 colon, over 10 µM; in the test with HL-60(TB) leukemia it was 8.25 µM; with KM12 colon it was over 10 µM; in the test on LOX IMVI melanoma it was over 10 µM; in the test with NCI-H522 lung, over 10 µM. Besides, the concentration for total growth inhibition (TGI) was over 10 µM with NCI/ADR-RES ovarian, 7.91 µM in the test with OVCAR-3 ovarian, over 10 µM with SK-MEL-5 melanoma and over 10 µM in the test on T-47D breast.

As for `CN1C(=S)C(c2ccccc2)Sc2ccccc21` (centres undefined), the concentration for total growth inhibition (TGI) in the test with COLO 205 colon, in the test on HCT-15 colon, in the test with HL-60(TB) leukemia, in the test with KM12 colon, in the test with LOX IMVI melanoma and with NCI-H522 lung was over 100 µM in each case. Besides, the TGI with NCI/ADR-RES ovarian, in the test on OVCAR-3 ovarian, with SK-MEL-5 melanoma and with T-47D breast was over 100 µM in each case.

`CCOC(=O)c1cc(C(=O)c2ccccc2)n2nc(-c3ccc(Cl)cc3)ccc12`: the TGI with COLO 205 colon was over 100 µM; with HCT-15 colon it was over 100 µM; in the test on HL-60(TB) leukemia, over 100 µM; with HOP-92 NSCLC, 60.5 µM; with KM12 colon it was 53.5 µM; in the test with LOX IMVI melanoma, over 100 µM. Moreover, the concentration for total growth inhibition (TGI) came out at 43.7 µM in the test with NCI-H522 lung, 81.8 µM in the test on NCI/ADR-RES ovarian, 51.9 µM in the test on SK-MEL-5 melanoma and 92.3 µM with T-47D breast.

Regarding `Cn1c(C(C#N)c2nc(Cl)ncc2Br)nc2ccccc21` (centres undefined), the TGI with COLO 205 colon, in the test on HCT-15 colon, in the test on HOP-92 NSCLC, in the test with KM12 colon, with LOX IMVI melanoma and in the test with NCI-H522 lung was over 100 µM throughout. Besides, the concentration for total growth inhibition (TGI) with NCI/ADR-RES ovarian, in the test on OVCAR-3 ovarian, in the test on SK-MEL-5 melanoma and with T-47D breast was over 100 µM each time.

By TGI is commonly meant the concentration giving total growth inhibition. Read a low TGI as greater sensitivity of the cells. For orientation: GI50 means the concentration at which growth is held to half of that of the control.
